Results on 16 molecules are retold here after paper PMC10779871, “Anti-Trypanosomal Bufadienolides from the Oocytes of the Toad Rhinella alata (Anura, Bufonidae)” (Molecules, 2023).

A short description of series [1]: Cytotoxicity assay (MTT) on Vero cells. Particulars: monkey, five days, read-out: VERO CELL CC50. The format is cell-based. The protocol: Epithelial kidney monkey Vero cells were incubated at 37 °C in 96-well plates under an atmosphere of 5% CO2, using RPMI-1640 medium (Sigma-Aldrich, St. Louis, MO, USA) supplemented with 0.05% gentamicin (50 mg/mL) and 10% FBS (fetal bovine serum; Gibco, Invitrogen, Carlsbad, CA, USA). Cells were allowed to adhere for one day before incubation for five days with the compounds. Doxorubicin and DMSO were used as positive and negative controls, respectively. When the incubation period ended, 3-(4, 5-di-methyl-thiazol-2-yl)-2, 5-di-phenyl-tetra-zolium bromide (MTT) was added to the wells, and after 4 h, absorbance was measured at 570 nm using a color plate reader. Cytotoxicity was assessed colorimetrically by calculating the capacity of the remaining Vero cells to reduce the yellow MTT into the dark purple formazan product, as reported.
(§1) All bioassays represent independent analysis and were carried out in duplicate. The data analysis complement Wizard of Excel 2000 (Microsoft, Seattle, WA, USA) was used for the statistical analysis of the 50% inhibiting (IC50) and cytotoxic (CC50) concentration values by adjusting the dose-response curve to a sigmoidal model.

Series [2] relates to Batrachochytrium dendrobatidis. Particulars: cited from earlier work.
The next series relates to T. cruzi trypomastigotes. Description: Anti-trypanosomal bioassay, T. cruzi Tulahuen clone C4 expressing β-galactosidase. Type of series: cell-based, Trypanosoma cruzi. Particulars: for EC50: Trypanosoma cruzi, 120 h, read-out: T. cruzi EC50; for Inhibition of the growth of T. cruzi trypomastigotes (in words): four concentrations, screening concentration of 10 µg/mL. The protocol:
Anti-trypanosomal bioassays were performed using the recombinant strain Tulahuen, clone C4, of T. cruzi in the form of trypomastigotes (ATCC, Manassas, VA, USA). This strain expresses the enzyme β-galactosidase. The parasites were incubated at 37 °C under an atmosphere of 5% CO2 in RPMI-1640 culture medium supplemented with L-glutamine,4-(2-hydroxyethyl)-piperazine-1-ethanesulfonic acid (HEPES) buffer, NaHCO3, 10% FBS and 0.05% gentamicin (50 mg/mL). Epithelial kidney monkey Vero cells (ATCC, Manassas, VA, USA) were incubated for 24 h and then infected with the parasites 24 h prior to the addition of the compounds. After additional 24 h of infection, the compounds (1–7) were dissolved in DMSO and tested at 10, 2, 0.4 and 0.08 µg/mL for five days. The drug benznidazole was used as a positive control. Chlorophenol-red-β-D-galactopyranoside (Roche Applied Science) was added to each well and then allowed to react with the β-galactosidase of the rest of the living parasites for 4.5 h to quantify the biological activity. Absorbance was measured at 570 nm using a plate reader (Sinergy HT, BioTek Instruments Inc., Winooski, VT, USA).
as §1

The test system of a further series is (Na+)ATPase. Particulars: cited from earlier work.
Another series deals with mouse macrophages. Particulars: cited from earlier work.
For another series, the system named is erythrocytes. Particulars: cited from earlier work.
Series [3] deals with T. cruzi. Particulars: previous study; cited from earlier work.
The subject of series [4] is T. cruzi. Also noted: method as in PMID 32061723. Particulars: read-out: IC50 anti-trypanosomal activity; cited from earlier work.
The next series relates to Vero cells. More on the design: method as in PMID 32061723. Particulars: in comparison with bufadienolide 7; cited from earlier work.
For series [5] the following is noted: cited from earlier work.
Where [6] appears, read: trypomastigote form, Tulahuen clone C4, five days, tested at 10, 2, 0.4 and 0.08 µg/mL.
The mark [7] stands for this setting: monkey (Vero host cells), Trypanosoma cruzi (parasite), read-out: Selectivity (CC50/EC50).

Where two headings read alike, the source gives them in different places.

One may read the CC50 as the concentration giving 50% cytotoxicity. For `COc1cccc2c1C(=O)c1c(O)c3c(c(O)c1C2=O)C[C@@](O)(C(=O)CO)C[C@@H]3O[C@H]1C[C@H](N)[C@H](O)[C@H](C)O1` [Doxorubicin, reference compound], the CC50 in series [1] was 0.23 µM.

Consider `C[C@]12CC[C@H](O)C[C@H]1CC[C@@H]1[C@@H]2[C@H](O)C[C@]2(C)[C@@H](c3ccc(=O)oc3)CC[C@]12O` [γ-bufotalin], for which the “Inhibition of Batrachochytrium dendrobatidis in vitro (in words)” value (“Inhibition … in vitro (in words)” for short) in series [2] is “inhibit”.

Broadly, the EC50 is the concentration needed to bring the measured effect to its halfway point. As for `CCC(=O)OC1C(c2ccc(=O)oc2)C2(C)CCC3C(CCC4(O)CC(O)CCC34C)C23OC13` (stereo not drawn) [Compound 6, dyscinobufotalin], in [1], the half-maximal cytotoxic concentration (CC50) stood at 0.02 ± 0.002 µM. The EC50 in the series on T. cruzi trypomastigotes (setting [6]) was 12.3 ± 1.87 µM. Moreover, the “Inhibition of the growth of T. cruzi trypomastigotes (in words)” value (“Inhibition of the growth … (in words)” for short) in the series with T. cruzi trypomastigotes was “reduce the growth”. Further, the selectivity ratio in the series on T. cruzi trypomastigotes (setting [7]) was under 0.01.

Consider `CC(=O)O[C@H]1C[C@]2(O)[C@@H]3CC[C@@H]4C[C@@H](O)CC[C@]4(C)[C@H]3CC[C@]2(C)[C@H]1c1ccc(=O)oc1` [Compound 4, bufotalin], for which the CC50 in series [1] is over 46 µM. Further, in the series on T. cruzi trypomastigotes (setting [6]), the concentration giving a half-maximal response (EC50) amounted to 19.6 ± 2 µM. Besides, the “Inhibition of the growth … (in words)” value in the series on T. cruzi trypomastigotes is given as “reduce the growth”. In addition, the selectivity ratio with T. cruzi trypomastigotes (setting [7]) was over 2.

Consider `C[C@]12CC[C@H](O)C[C@H]1CC[C@@H]1[C@@H]2[C@H](O)C(=O)[C@]2(C)[C@@H](c3ccc(=O)oc3)CC[C@]12O` [Arenobufagin], for which, in [2], the “Inhibition … in vitro (in words)” value is “inhibit”.

Regarding `C[C@@H]1O[C@@H](O[C@H]2C[C@@H](O)[C@]3(CO)[C@H]4[C@H](O)C[C@]5(C)[C@@H](C6=CC(=O)OC6)CC[C@]5(O)[C@@H]4CC[C@]3(O)C2)[C@H](O)[C@H](O)[C@H]1O` [ouabain], the “Inhibition of enzymatic activity of (Na+)ATPase (in words)” value with (Na+)ATPase is “not inhibited”.

Take `C[C@]12CC[C@H]3[C@@H](CC[C@]4(O)C[C@@H](O)CC[C@]34C=O)[C@@]1(O)CC[C@@H]2c1ccc(=O)oc1` [hellebrigenin]: the “Cytotoxicity on mouse macrophages (in words)” value with mouse macrophages is given as “no toxic effects”. The “Cytotoxicity on erythrocytes (in words)” value in the series with erythrocytes was “no toxic effects”. The Trypanocidal activity in the series with T. cruzi [3] was 91.7 µg/mL.

Turning to `C[C@]12CC[C@H](O)C[C@H]1CC[C@@H]1[C@@H]2CC[C@]2(C)[C@@H](c3ccc(=O)oc3)CC[C@]12O` [Compound 7, bufalin], in series [1], the CC50 at 5 days stood at 10.6 ± 1.54 µM. In addition, the EC50 with T. cruzi trypomastigotes (TULAHUEN) amounted to 3.93 ± 0.57 µM. In addition, the “Selectivity (CC50/EC50)” value in the series with T. cruzi trypomastigotes (cytotoxicity on Vero cells/anti-trypanosomal activity ratio) amounted to 2.69. Besides, in the series with T. cruzi trypomastigotes, the “Inhibition of the growth … (in words)” value is “reduce the growth”. Moreover, the selectivity ratio at 5 days in the series with T. cruzi trypomastigotes (monkey (Vero host cells), Trypanosoma cruzi (parasite), cytotoxicity on Vero cells/anti-trypanosomal activity ratio, read-out: Selectivity (CC50/EC50)) is 2.7.

As usually defined, the IC50 is the midpoint of a concentration-inhibition curve. Turning to `C[C@]12CC[C@H]3[C@@H](CC[C@@H]4C[C@@H](O)CC[C@@]43CO)[C@@]1(O)CC[C@@H]2c1ccc(=O)oc1` [19-hydroxy-bufalin], the half-maximal inhibitory concentration (IC50) with T. cruzi [4] was 19.4 µM. Moreover, the “Cytotoxicity against Vero cells (in words)” value with Vero cells was “low cytotoxicity”.

As to `Clc1ccc(C2CC3CCC2N3)cn1` (stereo not drawn) [epibatidine], the “Analgesic potency relative to morphine” value in series [5] is given as 200 times more potent than morphine.

Consider `CC12CCC3C(CCC4(O)CC(O)CCC34C=O)C1(O)CC(O)C2c1ccc(=O)oc1` (stereo not drawn) [Compound 1, 16β-hydroxyl-hellebrigenin], for which the cytotoxic concentration (CC50) in [1] is over 135 µM. In addition, the concentration for a half-maximal effect (EC50) in the series on T. cruzi trypomastigotes (setting [6]) stood at 22.8 ± 4.11 µM. Further, the “Inhibition of the growth … (in words)” value in the series with T. cruzi trypomastigotes is “reduce the growth”. For the same molecule, the selectivity ratio in the series with T. cruzi trypomastigotes (setting [7]) is over 5.

Regarding `CCC(=O)OC1C(c2ccc(=O)oc2)C2(C)CCC3C(CCC4(O)CC(O)CCC34C=O)C23OC13` (stereo not drawn) [Compound 3, 19-formyl-dyscinobufotalin], the half-maximal cytotoxic concentration (CC50) in series [1] was 0.22 ± 0.09 µM. For the same molecule, the 50% effective concentration (EC50) in the series on T. cruzi trypomastigotes (setting [6]) worked out at 0.19 ± 0.07 µM. In addition, the “Inhibition of the growth … (in words)” value with T. cruzi trypomastigotes is on record as “reduce the growth”. The selectivity ratio in the series with T. cruzi trypomastigotes (setting [7]) was 1.16.

For the molecule `C[C@]12CC[C@H](O)C[C@@]1(O)CC[C@@H]1[C@@H]2CC[C@]2(C)[C@@H](c3ccc(=O)oc3)CC[C@]12O` [telocinobufagin], the “Cytotoxicity on mouse macrophages (in words)” value in the series on mouse macrophages is “no toxic effects”. Further, the “Inhibition … in vitro (in words)” value in series [2] is on record as “inhibit”. Moreover, the “Cytotoxicity on erythrocytes (in words)” value in the series with erythrocytes is “no toxic effects”. Besides, in the series with T. cruzi [3], the Trypanocidal activity result was “inactive”.

Consider `CC(=O)O[C@H]1[C@H]2O[C@]23[C@@H]2CC[C@]4(O)C[C@@H](O)CC[C@]4(C)[C@H]2CC[C@]3(C)[C@H]1c1ccc(=O)oc1` [Compound 5, cinobufotalin], for which the CC50 in [1] was found to be 1.88 ± 0.2 µM. Moreover, in the series on T. cruzi trypomastigotes (setting [6]), the 50% effective concentration (EC50) was determined as 27.8 ± 3.77 µM. Also, in the series with T. cruzi trypomastigotes, the “Inhibition of the growth … (in words)” value is “reduce the growth”. The selectivity ratio in the series with T. cruzi trypomastigotes (setting [7]) was 0.07.

On to `O=C(Cn1ccnc1[N+](=O)[O-])NCc1ccccc1` [Benznidazole, reference compound], for which, in series [1], the CC50 was 51.4 ± 6 µM. Besides, the EC50 with T. cruzi trypomastigotes (setting [6]) came to 2.73 ± 0.1 µM. Moreover, in the series on T. cruzi trypomastigotes (setting [7]), the selectivity ratio was 18.8.

A word on the melting point: it is the temperature, or range, at which the solid turns liquid. Consider `C[C@]12CC[C@H](O)C[C@H]1CC[C@@H]1[C@@H]2CC[C@]2(C)[C@@H](c3ccc(=O)oc3)[C@@H](O)C[C@]12O` [Compound 2, desacetyl-bufotalin], for which the melting point is 71 °C. The CC50 in series [1] is over 28 µM. The “T. cruzi EC50” value in the series on T. cruzi trypomastigotes (setting [6]) is on record as “Inactive”.
